Calls of active or inactive are those of the source. The calls are words filed in the database; no cut-off is given here.
How the values were obtained:
[1] = tested on: Rattus norvegicus; assay: (§1) Anti-hyperuricemic activity against potassium oxonate-induced hyperuricemic Sprague-Dawley rat model assessed as ratio of urinary urate to urinary creatinine at 4 mg/kg, po pre-administered via gavage twice daily for 5 times followed by potassium oxonate injection for 1 hrs prior to last dose and measured after 3 hrs; assay type: functional; details: time 123 hrs
[2] = tested on: Mus musculus; assay: Anti-hyperuricemic activity against uric acid-induced hyperuricemic Kunming mouse model assessed as decrease in GLUT9 protein level in kidney at 2 to 8 mg/kg, pre-administered with uric acid for 3.5 days followed by compound administration via gavage twice a day for seven times by ELISA analysis; assay type: functional, organism-based; details: dose 2-8 mg/kg, time 7.0 day
[3] = tested on: Rattus norvegicus; assay: as §1, with “glomerular load” for “ratio”, “of” for “of urinary”, “measured per body surface area of 0.0311 m2” for “to urinary creatinine”, “1” for “4”; assay type: functional; details: time 123 hrs
[4] = tested on: Rattus norvegicus; assay: Anti-hyperuricemic activity against potassium oxonate-induced hyperuricemic Sprague-Dawley rat model assessed as urinary creatinine level at 2 mg/kg, po pre-administered via gavage twice daily for 5 times followed by potassium oxonate injection for 1 hrs prior to last dose and measured after 3 hrs; assay type: functional; details: time 123 hrs
[5] = tested on: Rattus norvegicus; assay: as §1, with “1” for “4”; assay type: functional; details: time 123 hrs
[6] = tested on: Rattus norvegicus; assay: (§2) Anti-hyperuricemic activity against potassium oxonate-induced hyperuricemic Sprague-Dawley rat model assessed as urine volume at 4 mg/kg, po pre-administered via gavage twice daily for 5 times followed by potassium oxonate injection for 1 hrs prior to last dose and measured after 3 hrs; assay type: functional; details: time 123 hrs
[7] = tested on: Rattus norvegicus; assay: as §2, with “excretion of urate per” for “urine”, “volume of glomerular filtration measured per body surface area of 0.0311 m2” for “volume”, “2” for “4”; assay type: functional; details: time 123 hrs
[8] = tested on: Rattus norvegicus; assay: Anti-hyperuricemic activity against potassium oxonate-induced hyperuricemic Sprague-Dawley rat model assessed as urinary creatinine level at 4 mg/kg, po pre-administered via gavage twice daily for 5 times followed by potassium oxonate injection for 1 hrs prior to last dose and measured after 3 hrs; assay type: functional; details: time 123 hrs
[9] = tested on: Rattus norvegicus; assay: (§3) Anti-hyperuricemic activity against potassium oxonate-induced hyperuricemic Sprague-Dawley rat model assessed as urine volume at 1 mg/kg, po pre-administered via gavage twice daily for 5 times followed by potassium oxonate injection for 1 hrs prior to last dose and measured after 3 hrs; assay type: functional; details: time 123 hrs
[10] = tested on: Rattus norvegicus; assay: as §1, with “glomerular load” for “ratio”, “of” for “of urinary”, “measured per body surface area of 0.0311 m2” for “to urinary creatinine”, “2” for “4”; assay type: functional; details: time 123 hrs
[11] = tested on: Rattus norvegicus; assay: as §1, with “clearance” for “ratio”, “of” for “of urinary urate to urinary”, “creatinine measured per body surface area of 0.0311 m2” for “creatinine”, “1” for “4”; assay type: functional; details: time 123 hrs
[12] = tested on: Rattus norvegicus; assay: as §3, with “excretion of urate per” for “urine”, “volume of glomerular filtration measured per body surface area of 0.0311 m2” for “volume”; assay type: functional; details: time 123 hrs
[13] = tested on: Rattus norvegicus; assay: (§4) Anti-hyperuricemic activity against potassium oxonate-induced hyperuricemic Sprague-Dawley rat model assessed as increase in urinary urate level at 2 mg/kg, po pre-administered via gavage twice daily for 5 times followed by potassium oxonate injection for 1 hrs prior to last dose and measured after 3 hrs relative to control; assay type: functional; details: time 123 hrs
[14] = tested on: Mus musculus; assay: Hypouricemic activity in potassium oxonate-induced hyperuricemic Kunming mouse model assessed as decrease in serum uric acid level at 5 mg/kg, IG pre-administered via gavage twice daily for 5 times followed by potassium oxonate injection for 1 hrs prior to last dose by phosphotungstic acid method; assay type: functional; details: time 5.0 day
[15] = target: Xanthine dehydrogenase/oxidase (Homo sapiens, UniProt P47989); assay: Inhibition of XOD (unknown origin) using xanthine as substrate assessed as inhibition of uric acid generation at 150 mg/L preincubated for 15 mins followed by xanthine addition and measured by spectrophotometric analysis relative to control
Chain of Xanthine dehydrogenase/oxidase (P47989 whole entry): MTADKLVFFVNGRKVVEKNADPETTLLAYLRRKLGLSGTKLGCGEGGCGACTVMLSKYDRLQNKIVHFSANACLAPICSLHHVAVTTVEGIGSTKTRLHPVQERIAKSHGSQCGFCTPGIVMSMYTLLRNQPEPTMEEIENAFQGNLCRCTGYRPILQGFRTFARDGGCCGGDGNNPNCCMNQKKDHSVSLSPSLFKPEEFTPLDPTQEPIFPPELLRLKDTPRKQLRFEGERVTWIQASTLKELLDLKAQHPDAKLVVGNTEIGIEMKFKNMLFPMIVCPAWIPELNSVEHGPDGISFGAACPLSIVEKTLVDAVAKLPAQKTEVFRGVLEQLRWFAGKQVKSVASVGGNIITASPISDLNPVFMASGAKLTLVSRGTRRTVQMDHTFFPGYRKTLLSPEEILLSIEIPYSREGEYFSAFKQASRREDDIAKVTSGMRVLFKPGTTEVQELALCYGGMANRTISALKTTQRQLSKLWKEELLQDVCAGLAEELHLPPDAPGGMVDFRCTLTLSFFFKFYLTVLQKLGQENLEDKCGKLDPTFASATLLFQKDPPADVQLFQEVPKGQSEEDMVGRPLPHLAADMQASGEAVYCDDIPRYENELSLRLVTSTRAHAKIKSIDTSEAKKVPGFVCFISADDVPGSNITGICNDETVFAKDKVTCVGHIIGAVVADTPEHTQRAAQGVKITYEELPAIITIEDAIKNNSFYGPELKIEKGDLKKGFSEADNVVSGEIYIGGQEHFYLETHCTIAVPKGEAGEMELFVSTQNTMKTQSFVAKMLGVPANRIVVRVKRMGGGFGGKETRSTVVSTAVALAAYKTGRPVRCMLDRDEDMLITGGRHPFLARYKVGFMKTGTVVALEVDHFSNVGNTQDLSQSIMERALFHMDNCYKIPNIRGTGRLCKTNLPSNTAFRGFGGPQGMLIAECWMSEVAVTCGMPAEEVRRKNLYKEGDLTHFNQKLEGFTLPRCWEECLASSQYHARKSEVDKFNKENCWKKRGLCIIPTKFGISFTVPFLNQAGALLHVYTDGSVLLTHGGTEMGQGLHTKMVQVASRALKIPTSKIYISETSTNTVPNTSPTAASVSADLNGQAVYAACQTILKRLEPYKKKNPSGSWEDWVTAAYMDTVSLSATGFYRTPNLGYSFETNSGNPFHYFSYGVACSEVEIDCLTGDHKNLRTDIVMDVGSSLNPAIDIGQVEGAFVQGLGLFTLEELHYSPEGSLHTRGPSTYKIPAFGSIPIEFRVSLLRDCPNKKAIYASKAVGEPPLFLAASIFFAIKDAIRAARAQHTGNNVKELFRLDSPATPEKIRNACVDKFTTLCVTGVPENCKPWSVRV

[16] = tested on: Rattus norvegicus; assay: Anti-hyperuricemic activity against potassium oxonate-induced hyperuricemic Sprague-Dawley rat model assessed as serum urate level at 4 mg/kg, po pre-administered via gavage twice daily for 5 times followed by potassium oxonate injection for 1 hrs prior to last dose and measured after 3 hrs; assay type: functional; details: time 123 hrs
[17] = tested on: Rattus norvegicus; assay: as §1, with “2” for “4”; assay type: functional; details: time 123 hrs
[18] = Acute toxicity in mouse assessed as change in body weight at 50 g/Kg, IG measured for 14 days; details: in vivo, po, 50000 mg/kg, 336 h, time 14 day
[19] = tested on: Rattus norvegicus; assay: Anti-hyperuricemic activity against potassium oxonate-induced hyperuricemic Sprague-Dawley rat model assessed as serum creatinine level at 1 mg/kg, po pre-administered via gavage twice daily for 5 times followed by potassium oxonate injection for 1 hrs prior to last dose and measured after 3 hrs; assay type: functional; details: time 123 hrs
[20] = tested on: Rattus norvegicus; assay: Anti-hyperuricemic activity against potassium oxonate-induced hyperuricemic Sprague-Dawley rat model assessed as urine volume at 2 mg/kg, po pre-administered via gavage twice daily for 5 times followed by potassium oxonate injection for 1 hrs prior to last dose and measured after 3 hrs; assay type: functional; details: time 123 hrs
[21] = tested on: Rattus norvegicus; assay: Anti-hyperuricemic activity against potassium oxonate-induced hyperuricemic Sprague-Dawley rat model assessed as urinary urate at 4 mg/kg, po pre-administered via gavage twice daily for 5 times followed by potassium oxonate injection for 1 hrs prior to last dose and measured after 3 hrs; assay type: functional; details: time 123 hrs
[22] = tested on: Rattus norvegicus; assay: Anti-hyperuricemic activity against potassium oxonate-induced hyperuricemic Sprague-Dawley rat model assessed as urinary urate level at 1 mg/kg, po pre-administered via gavage twice daily for 5 times followed by potassium oxonate injection for 1 hrs prior to last dose and measured after 3 hrs; assay type: functional; details: time 123 hrs
[23] = tested on: Rattus norvegicus; assay: Anti-hyperuricemic activity against potassium oxonate-induced hyperuricemic Sprague-Dawley rat model assessed as serum urate level at 1 mg/kg, po pre-administered via gavage twice daily for 5 times followed by potassium oxonate injection for 1 hrs prior to last dose and measured after 3 hrs; assay type: functional; details: time 123 hrs
[24] = tested on: Rattus norvegicus; assay: as §4, with “fractional excretion of” for “increase in urinary”, “urate” for “urate level”; assay type: functional; details: time 123 hrs
[25] = target: T1, Solute carrier family 22 member 12 (Homo sapiens, UniProt Q96S37); assay: Inhibition of human URAT1-mediated [8-14C]uric acid uptake expressed in HEK293 cells using [8-14C]uric acid as substrate by liquid scintillation counter analysis; assay type: cell-based
T1 sequence (Q96S37 whole entry): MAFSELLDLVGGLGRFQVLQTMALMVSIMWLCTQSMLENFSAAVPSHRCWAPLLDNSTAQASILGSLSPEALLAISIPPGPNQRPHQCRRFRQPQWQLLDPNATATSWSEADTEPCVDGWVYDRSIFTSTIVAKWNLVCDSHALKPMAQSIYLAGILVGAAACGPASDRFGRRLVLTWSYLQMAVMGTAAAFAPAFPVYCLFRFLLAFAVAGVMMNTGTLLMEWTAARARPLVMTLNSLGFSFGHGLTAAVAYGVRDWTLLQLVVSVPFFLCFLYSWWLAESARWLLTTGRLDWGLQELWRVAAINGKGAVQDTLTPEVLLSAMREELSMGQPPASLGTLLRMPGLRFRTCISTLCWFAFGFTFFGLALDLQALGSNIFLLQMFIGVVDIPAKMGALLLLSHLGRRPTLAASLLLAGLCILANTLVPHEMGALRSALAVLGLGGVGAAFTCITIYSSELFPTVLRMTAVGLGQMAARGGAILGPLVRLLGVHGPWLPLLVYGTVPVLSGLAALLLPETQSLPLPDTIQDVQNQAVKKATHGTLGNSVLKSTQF

[26] = tested on: Mus musculus; assay: Hypouricemic activity in potassium oxonate-induced hyperuricemic Kunming mouse model assessed as decrease in serum uric acid level at 4 mg/kg, IG by phosphotungstic acid method; assay type: functional, organism-based; details: time <= 6.0 hrs, TDE = time-dependent effect

SMILES: COc1c(O)cc2oc3cc(O)c(CC=C(C)C)c(O)c3c(=O)c2c1CC=C(C)C [MANGOSTIN]
- Ratio [1]: 2.9
- Activity [2]: Active
- Activity [3]: 4.4 µmol/min
- Activity [4]: 0.8 mmol/L
- Ratio [5]: 2.7
- Activity [6]: 6.2 mL
- Activity [7]: 5.8 µmol/L
- Activity [8]: 0.9 mmol/L
- Activity [9]: 6.8 mL
- Activity [10]: 3.6 µmol/min
- Activity [11]: 21.4 mL/min
- Activity [12]: 4.9 µmol/L
- Activity [13]: 42%
- Activity [14]: Active
- inhibition at 150 µg/mL [15]: 1.4%
- Activity [16]: 202 µmol/L
- Ratio [17]: 3.2
- Activity [18]: Non-Toxic
- Activity [19]: 54.4 µmol/L
- Activity [20]: 5.6 mL
- Activity [21]: 476 µmol
- Activity [22]: 2.4 mmol/L
- Activity [23]: 220 µmol/L
- Activity [24]: 77%
- IC50 [25]: 58.9 µM
- Activity [26]: Tde
